Experimental data as given in PMC9616876, “Structures of the CcmABCD heme release complex at multiple states” (Nature Communications, 2022).

Tests used:
[1] = biological target: T1, CcmABCD (ATP-binding site in CcmA) (Escherichia coli, UniProt P33931); test: cryo-EM structure
T1 construct: full-length CcmA2B2C1D1, N-terminal His6 on CcmA; CcmABCDE operon co-expressed in E. coli BL21(DE3), CcmE not observed in purified complex; DDM-solubilised membranes; with Heme exporter protein B; Heme exporter protein C; Heme exporter protein D

[2] = biological target: the molecule itself; test: cryo-EM structure; CcmABCD purified in DDM (20 mM Tris-HCl pH 7.5, 50 mM NaCl, 0.03% DDM), ~12 mg/ml; apo, with 3.5 mM MgCl2 and AMP-PNP, or with 3.5 mM MgCl2, ATP, heme b and 1 mM DTT; closed, semi-open and open NBD states

Molecule: Nc1ncnc2c1ncn2[C@@H]1O[C@H](COP(=O)(O)OP(=O)(O)NP(=O)(O)O)[C@@H](O)[C@H]1O [AMP-PNP]
- cryo-EM structure ([1]; 3.5 mM AMP-PNP, 3.5 mM MgCl2, two AMP-PNP, closed NBD state): CcmABCD bound with AMP-PNP in closed NBD state

Molecule: Nc1ncnc2c1ncn2[C@@H]1O[C@H](COP(=O)(O)OP(=O)(O)OP(=O)(O)O)[C@@H](O)[C@H]1O [ATP]
- cryo-EM structure ([1]; 3.5 mM ATP, 3.5 mM MgCl2, 3.5 mM heme b, 1 mM DTT, two ATP in closed NBD state (7F04), one ATP in semi-open NBD state (7VFP), ATPase activity also measured): CcmABCD bound with heme b and double ATPs in closed NBD state

Molecule: O=P(O)(O)O [inorganic phosphate]
- cryo-EM structure ([1]; no nucleotide added, one phosphate per CcmA, closed NBD state, membranes purified in potassium phosphate buffer): each CcmA binds one inorganic phosphate

B1: CcmA (natural protein, E. coli BL21 (DE3))
chain: MGMLEARELLCERDERTLFSGLSFTLNAGEWVQITGSNGAGKTTLLRLLTGLSRPDAGEVLWQGQPLHQVRDSYHQNLLWIGHQPGIKTRLTALENLHFYHRDGDTAQCLEALAQAGLAGFEDIPVNQLSAGQQRRVALARLWLTRATLWILDEPFTAIDVNGVDRLTQRMAQHTEQGGIVILTTHQPLNVAESKIRRISLTQTRAA
notes: The whole CcmABCDE gene stretch was amplified by PCR from the genome; also called hexahistidine-tagged CcmA; NBD; not shown: His6, N-terminal, kept
- stoichiometry N [2]: 2

B2: CcmB (natural protein, E. coli BL21 (DE3))
chain: MMFWRIFRLELRVAFRHSAEIANPLWFFLIVITLFPLSIGPEPQLLARIAPGIIWVAALLSSLLALERLFRDDLQDGSLEQLMLLPLPLPAVVLAKVMAHWMVTGLPLLILSPLVAMLLGMDVYGWQVMALTLLLGTPTLGFLGAPGVALTVGLKRGGVLLSILVLPLTIPLLIFATAAMDAASMHLPVDGYLAILGALLAGTATLSPFATAAALRISIQ
notes: CcmB, integral membrane protein with six transmembrane helices, gene amplified from the E. coli BL21 (DE3) genome; also called CcmB1; CcmB2
- stoichiometry N [2]: 2
